Molecules are shown by their SMILES. pIC50: −log10 of the molar value.

The target of this test is T1, PIk1 (Homo sapiens, UniProt P53350).
T1 construct: His tag (histidine tag) (N); made in house; host or cells: SF9 insect cells
T1 sequence (P53350 whole entry): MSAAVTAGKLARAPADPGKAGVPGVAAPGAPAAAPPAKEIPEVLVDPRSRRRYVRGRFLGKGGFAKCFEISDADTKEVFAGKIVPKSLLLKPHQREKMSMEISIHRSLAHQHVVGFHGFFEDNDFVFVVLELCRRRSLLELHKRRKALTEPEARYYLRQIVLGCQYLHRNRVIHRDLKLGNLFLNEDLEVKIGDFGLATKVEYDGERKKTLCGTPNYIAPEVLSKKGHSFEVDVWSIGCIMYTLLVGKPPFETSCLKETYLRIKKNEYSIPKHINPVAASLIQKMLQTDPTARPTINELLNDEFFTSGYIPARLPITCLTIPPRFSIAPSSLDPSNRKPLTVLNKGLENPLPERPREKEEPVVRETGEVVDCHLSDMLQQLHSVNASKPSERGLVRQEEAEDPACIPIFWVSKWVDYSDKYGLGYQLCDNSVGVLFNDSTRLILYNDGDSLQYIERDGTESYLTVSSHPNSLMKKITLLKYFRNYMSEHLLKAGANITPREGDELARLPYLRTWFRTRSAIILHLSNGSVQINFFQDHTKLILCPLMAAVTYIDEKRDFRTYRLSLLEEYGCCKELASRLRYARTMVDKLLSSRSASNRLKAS
The test is described as follows: PIk1 kinase activity inhibition assay (33P incorporation into alpha casein, flash plates). The class given is biochemical. The conditions noted are these: recombinant N-terminally histidine-tagged PIk1, alpha casein as substrate, 100 nM Li-ATP, 80 minutes at 30°C. The method, then: The inhibition of PIk1 kinase activity can be measured using recombinant PIk1 protein expressed as an N-terminally histidine-tagged protein in SF9 insect cells and alpha casein as substrate. The PIk1 assay is run in 96 well plates by incubating 50 to 100 ng per well recombinant PIk1, 500 ng per well alpha casein (Sigma, # C-6780) as substrate, 10 µl of compound of invention (test compounds were dissolved as 20 mM solutions in dimethylsulfoxide (DMSO) and subsequently diluted), and 100 nM Li-ATP (including ^33P-ATP) in 100 µl of reaction buffer ([…], pH 7.5; 3 mM MgCl2; 3 mM MnCl2; 3 µM Na-Orthovanadat; 1 mM DTT; 1 µg/ml PEG 8000) for 80 minutes at 30°C. The reactions are terminated by adding 100 µl stopping buffer (2% H3PO4 for 5 minutes) and are washed 3 times with washing solution (0,9% NaCl). Determining ^33P incorporated into the protein substrate alpha casein, the detection is based on the adhesion of the phosphorylated protein to the surface of scintillator-coated flash plates (Perkin Elmer, USA; # SMP-200). Phosphorylation of alpha casein is measured by counting the radioactivity bound to the plate for 60 sec. using a plate reader (Perkin Elmer, USA; Wallac Microbeta). By this method, the IC50 value of the PIk1 inhibition is determined as described above. […]
Regarding `C/C=C/c1c(OC2CCC2)c(=O)n(C)c2cnc(Nc3ccc(C(=O)NC4CCN(C)CC4)cc3OC)nc12` [Example 43, 4-({7-(cyclobutyloxy)-5-methyl-6-oxo-8-[(1E)-prop-1-en-1-yl]-5,6-dihydropyrido[3,2-d]pyrimidin-2-yl}amino)-3-methoxy-N-(1-methylpiperidin-4-yl)benzamide], the negative-log IC50 (pIC50) (usually −log10 of the IC50, conventionally taken in molar units) was over 8.00.

As to `C/C=C/c1c(OC)c(=O)n(C)c2cnc(Nc3ccc(C(=O)N[C@@H](C)Cc4c[nH]cn4)cc3OC)nc12` [Example 29, N-[(1S)-2-(1H-imidazol-4-yl)-1-methylethyl]-3-methoxy-4-({7-methoxy-5-methyl-6-oxo-8-[(1E)-prop-1-en-1-yl]-5,6-dihydropyrido[3,2-d]pyrimidin-2-yl}amino)benzamide], the pIC50 was over 7.00.

For `C/C=C/c1c(OCC2CCCC2)c(=O)n(C)c2cnc(Nc3ccc(C(=O)NC4CCN(C)CC4)cc3OC)nc12` [Example 42, 4-({7-(cyclopentylmethoxy)-5-methyl-6-oxo-8-[(1E)-prop-1-en-1-yl]-5,6-dihydropyrido[3,2-d]pyrimidin-2-yl}amino)-3-methoxy-N-(1-methylpiperidin-4-yl)benzamide], the pIC50 is over 7.00.

As to `Cc1cc(C(=O)NC2CCN(C)CC2)ccc1Nc1ncc2c(n1)c(-c1ccsc1)c(OCC1CC1)c(=O)n2C` [Example 66, 4-{[7-(cyclopropylmethoxy)-5-methyl-6-oxo-8-(3-thienyl)-5,6-dihydropyrido[3,2-d]pyrimidin-2-yl]amino}-3-methyl-N-(1-methylpiperidin-4-yl)benzamide], the pIC50 was over 8.00.

Regarding `COc1cc(C(=O)NC2CCN(C)CC2)ccc1Nc1ncc2c(n1)c(-c1ccoc1)c(OCC1CC1)c(=O)n2C` [Example 39, 4-{[7-(cyclopropylmethoxy)-8-(3-furyl)-5-methyl-6-oxo-5,6-dihydro-pyrido[3,2-d]pyrimidin-2-yl]amino}-3-methoxy-N-(1-methylpiperidin-4-yl)benzamide], the pIC50 was over 8.00.

As to `COc1cc(C(=O)NC2CCN(C)CC2)ccc1Nc1ncc2c(n1)c(-c1cnn(C)c1)c(OC)c(=O)n2C` [Example 35, 3-methoxy-4-{[7-methoxy-5-methyl-8-(1-methyl-1H-pyrazol-4-yl)-6-oxo-5,6-dihydropyrido[3,2-d]pyrimidin-2-yl]amino}-N-(1-methylpiperidin-4-yl)benzamide], the pIC50 is over 6.00.

As for `CCOc1c(-c2ncco2)c2nc(Nc3ccc(C(=O)NC4CCN(C)CC4)cc3OC)ncc2n(C)c1=O` [Example 44, 4-{[7-ethoxy-5-methyl-8-(1,3-oxazol-2-yl)-6-oxo-5,6-dihydropyrido[3,2-d]pyrimidin-2-yl]amino}-3-methoxy-N-(1-methylpiperidin-4-yl)benzamide], the pIC50 was over 7.00.

For the compound `C/C=C/c1c(OCC)c(=O)n(C)c2cnc(Nc3ccc(C(=O)NC4CCN(C)CC4)cc3OC)nc12` [Example 18, 4-({7-ethoxy-5-methyl-6-oxo-8-[(1E)-prop-1-en-1-yl]-5,6-dihydropyrido[3,2-d]pyrimidin-2-yl}amino)-3-methoxy-N-(1-methylpiperidin-4-yl)benzamide], the pIC50 was over 7.00.

Consider `COc1cc(C(=O)NCC2CCN(C)CC2)ccc1Nc1ncc2c(n1)c(-c1ccsc1)c(OCC1CC1)c(=O)n2C` [Example 48, 4-{[7-(cyclopropylmethoxy)-5-methyl-6-oxo-8-(3-thienyl)-5,6-dihydro-pyrido[3,2-d]pyrimidin-2-yl]amino}-3-methoxy-N-[(1-methylpiperidin-4-yl)methyl] benzamide], for which the pIC50 was over 8.00.

On to `COc1cc(C(=O)NC2CCN(C)CC2)ccc1Nc1ncc2c(n1)c(C1CCCC1)c(OC)c(=O)n2C` [Example 14, 4-[(8-cyclopentyl-7-methoxy-5-methyl-6-oxo-5,6-dihydropyrido[3,2-d]pyrimidin-2-yl)amino]-3-methoxy-N-(1-methylpiperidin-4-yl)benzamide], for which the pIC50 was over 7.00.

For the compound `C/C=C/c1c(OCC2CC2)c(=O)n(C)c2cnc(Nc3ccc(C(=O)NC4CCN(C)CC4)cc3CC)nc12` [Example 65, 4-({7-(cyclopropylmethoxy)-5-methyl-6-oxo-8-[(1E)-prop-1-en-1-yl]-5,6-dihydropyrido[3,2-d]pyrimidin-2-yl}amino)-3-ethyl-N-(1-methylpiperidin-4-yl)benzamide], the negative-log IC50 (pIC50) was over 8.00.

For the compound `COc1cc(C(=O)NC2CCN(C)CC2)ccc1Nc1ncc2c(n1)c(C1=C(C)CCCC1)c(OC)c(=O)n2C` [Example 17, 3-methoxy-4-{[7-methoxy-5-methyl-8-(2-methylcyclohex-1-en-1-yl)-6-oxo-5,6-dihydropyrido[3,2-d]pyrimidin-2-yl]amino}-N-(1-methylpiperidin-4-yl)benzamide], the pIC50 is over 6.00.

For the compound `COc1cc(C(=O)NC2CCN(C)CC2)ccc1Nc1ncc2c(n1)c(-c1ccsc1)c(OC(C)C)c(=O)n2C` [Example 31, 4-{[7-isopropoxy-5-methyl-6-oxo-8-(3-thienyl)-5,6-dihydropyrido[3,2-d]pyrimidin-2-yl]amino}-3-methoxy-N-(1-methylpiperidin-4-yl)benzamide], the negative-log IC50 (pIC50) was over 7.00.

As for `C/C=C/c1c(OC2CC2)c(=O)n(C)c2cnc(Nc3ccc(C(=O)NC4CCN(C)CC4)cc3OC)nc12` [Example 56, 4-({7-(cyclopropyloxy)-5-methyl-6-oxo-8-[(1E)-prop-1-en-1-yl]-5,6-dihydropyrido[3,2-d]pyrimidin-2-yl}amino)-3-methoxy-N-(1-methylpiperidin-4-yl)benzamide], the pIC50 is over 8.00.

Regarding `C/C=C/c1c(OC)c(=O)n(C)c2cnc(Nc3ccc(C(=O)NC4CCN(CC)CC4)cc3OC)nc12` [Example 25, N-(1-ethylpiperidin-4-yl)-3-methoxy-4-({7-methoxy-5-methyl-6-oxo-8-[(1E)-prop-1-en-1-yl]-5,6-dihydropyrido[3,2-d]pyrimidin-2-yl}amino)benzamide], the negative-log IC50 (pIC50) was over 6.00.

For `CCOc1c(-c2ccsc2)c2nc(Nc3ccc(C(=O)NC4CCN(C)CC4)cc3OC)ncc2n(C)c1=O` [Example 30, 4-{[7-ethoxy-5-methyl-6-oxo-8-(3-thienyl)-5,6-dihydropyrido[3,2-d]pyri-midin-2-yl]amino}-3-methoxy-N-(1-methylpiperidin-4-yl)benzamide], the pIC50 was over 8.00.

Turning to `COc1cc(C(=O)NC2CCN(C)CC2)ccc1Nc1ncc2c(n1)c(-c1cscc1C)c(OC)c(=O)n2C` [Example 33, 3-methoxy-4-{[7-methoxy-5-methyl-8-(4-methyl-3-thienyl)-6-oxo-5,6-dihydropyrido[3,2-d]pyrimidin-2-yl]amino}-N-(1-methylpiperidin-4-yl)benzamide], the pIC50 is over 6.00.

In the case of `COc1cc(C(=O)NCCC2CCCN2C)ccc1Nc1ncc2c(n1)c(-c1ccsc1)c(OCC1CC1)c(=O)n2C` (stereo not drawn) [Example 47, 4-{[7-(cyclopropylmethoxy)-5-methyl-6-oxo-8-(3-thienyl)-5,6-dihydropyrido[3,2-d]pyrimidin-2-yl]amino}-3-methoxy-N-[2-(1-methylpyrrolidin-2-yl)ethyl]benzamide], the pIC50 is over 8.00.

As for `COc1cc(C(=O)NC2CCN(C)CC2)ccc1Nc1ncc2c(n1)c(-c1cccnc1)c(OCC1CC1)c(=O)n2C` [Example 69, 4-{[7-(cyclopropylmethoxy)-5-methyl-6-oxo-8-pyridin-3-yl-5,6-dihydro-pyrido[3,2-d]pyrimidin-2-yl]amino}-3-methoxy-N-(1-methylpiperidin-4-yl)benzamide], the pIC50 is over 8.00.

As for `COc1cc(C(=O)NC2CCN(C)CC2)ccc1Nc1ncc2c(n1)c(-c1ccccn1)c(OCC1CC1)c(=O)n2C` [Example 74, 4-{[7-(cyclopropylmethoxy)-5-methyl-6-oxo-8-pyridin-2-yl-5,6-dihydro-pyrido[3,2-d]pyrimidin-2-yl]amino}-3-methoxy-N-(1-methylpiperidin-4-yl)benzamide], the negative logarithm of the IC50 (pIC50) was over 8.00.

`C/C=C/c1c(OCC2CC2)c(=O)n(C)c2cnc(Nc3ccc(C(=O)NC4CCN(C)CC4)cc3C)nc12` [Example 64, 4-({7-(cyclopropylmethoxy)-5-methyl-6-oxo-8-[(1E)-prop-1-en-1-yl]-5,6-dihydropyrido[3,2-d]pyrimidin-2-yl}amino)-3-methyl-N-(1-methylpiperidin-4-yl)benzamide]: the negative-log IC50 (pIC50) was over 8.00.

Take `COc1cc(C(=O)NC2CCN(C)CC2)ccc1Nc1ncc2c(n1)c(Cl)c(OC)c(=O)n2C` [Example 16, 4-[(8-chloro-7-methoxy-5-methyl-6-oxo-5,6-dihydropyrido[3,2-d]pyrimidin-2-yl)amino]-3-methoxy-N-(1-methylpiperidin-4-yl)benzamide]: the pIC50 is over 6.00.

On to `COc1cc(C(=O)NC2CCN(C)CC2)ccc1Nc1ncc2c(n1)c(-c1cccc(C)c1)c(OCC1CC1)c(=O)n2C` [Example 61, 4-{[7-(cyclopropylmethoxy)-5-methyl-8-(3-methylphenyl)-6-oxo-5,6-dihydropyrido[3,2-d]pyrimidin-2-yl]amino}-3-methoxy-N-(1-methylpiperidin-4-yl)benzamide], for which the pIC50 was over 8.00.

With `COc1cc(C(=O)NC2CCN(C)CC2)ccc1Nc1ncc2c(n1)c(-c1ccncc1)c(OCC1CC1)c(=O)n2C` [Example 68, 4-{[7-(cyclopropylmethoxy)-5-methyl-6-oxo-8-pyridin-4-yl-5,6-dihydro-pyrido[3,2-d]pyrimidin-2-yl]amino}-3-methoxy-N-(1-methylpiperidin-4-yl)benzamide], the pIC50 is over 8.00.

(Values after patent EP2100894A1, “Pyridopyrimidines used as Plk1 (polo-like kinase) inhibitors” (4SC AG, priority 2008, dated 2009).)
